# Experimental data reported in ChEMBL document CHEMBL1201862, “PubChem BioAssay data set” (2004).
# Active and inactive are the calls of the source.
# Key:
# HEK293 [1] = assay: cells; assay type: functional, cell-based; conditions: Homo sapiens
# [2] = inhibitors of firefly luciferase expression or activity, dose response, H4 neuroglioma cells, luminescence (AID 1990); assay type: functional, cell-based
# HEK293 [3] = assay: NOD2 signaling inhibitors in MDP-stimulated cells, cell-based, uHTS, luminescence (AID 2001); assay type: functional; conditions: Homo sapiens
# [4] = target: T1, Nucleotide-binding oligomerization domain-containing protein 1 (Homo sapiens, UniProt Q9Y239); assay: NOD1 signaling inhibitors, SAR follow-up, revised (AID 2333); assay type: functional
# T1 sequence (Q9Y239 whole entry): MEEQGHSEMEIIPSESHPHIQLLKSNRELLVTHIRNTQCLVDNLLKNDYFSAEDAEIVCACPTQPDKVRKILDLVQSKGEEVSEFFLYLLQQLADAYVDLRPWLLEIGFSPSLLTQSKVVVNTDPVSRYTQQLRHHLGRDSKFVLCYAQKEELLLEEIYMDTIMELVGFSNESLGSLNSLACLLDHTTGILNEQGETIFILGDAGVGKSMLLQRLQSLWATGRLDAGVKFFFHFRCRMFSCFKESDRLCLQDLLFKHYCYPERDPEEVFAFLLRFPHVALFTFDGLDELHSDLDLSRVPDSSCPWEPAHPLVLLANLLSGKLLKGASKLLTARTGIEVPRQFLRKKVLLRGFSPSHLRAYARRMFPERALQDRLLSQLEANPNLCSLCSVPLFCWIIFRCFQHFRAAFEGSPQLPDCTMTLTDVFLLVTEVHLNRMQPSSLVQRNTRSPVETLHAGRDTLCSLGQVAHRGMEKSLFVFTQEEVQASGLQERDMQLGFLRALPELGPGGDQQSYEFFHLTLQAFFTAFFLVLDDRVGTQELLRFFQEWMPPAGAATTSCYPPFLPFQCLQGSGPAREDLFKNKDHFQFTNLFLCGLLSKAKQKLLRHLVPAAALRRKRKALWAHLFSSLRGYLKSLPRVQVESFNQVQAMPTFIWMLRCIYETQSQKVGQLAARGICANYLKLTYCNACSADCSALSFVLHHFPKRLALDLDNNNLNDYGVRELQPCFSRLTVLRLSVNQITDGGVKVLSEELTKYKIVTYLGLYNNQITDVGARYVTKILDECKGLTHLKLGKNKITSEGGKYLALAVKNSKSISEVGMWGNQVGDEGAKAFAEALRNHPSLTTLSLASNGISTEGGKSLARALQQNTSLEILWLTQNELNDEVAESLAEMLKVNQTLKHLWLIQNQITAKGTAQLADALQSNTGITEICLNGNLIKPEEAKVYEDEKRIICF
# [5] = cytotoxicity toward NIH3T3 fibroblasts, dose response, counter-screen, cell-based, ATP luminescence, mouse fibroblasts (AID 2010); assay type: functional;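 also: cells exposed to compound for about 90 hours before reading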
# Tumor necrosis factor = Tumor necrosis factor (Homo sapiens, UniProt P01375); assay: TNFa-triggered NF-kB activation inhibitors, SAR follow-up, cell-based, revised (AID 2337); assay type: functional
# HEK293 [6] = assay: NOD1 signaling inhibitors, primary screen, cell-based, luminescence, uHTS (AID 1578); assay type: functional; conditions: Homo sapiens
# [7] = target: T2, Nucleotide-binding oligomerization domain-containing protein 2 (Homo sapiens, UniProt Q9HC29); assay: PubChem AID 2334; assay type: functional
# [8] = inhibitors of intracellular T. cruzi replication, confirmation, NIH3T3 host cells, beta-gal luminescence (AID 2044); assay type: functional, cell-based;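 also: intracellular parasites grown in NIH/3T3 mouse fibroblasts as host cells; luminescent beta-galactosidase reporter signal from transgenic T. cruzi replicating inside host cells; inhibitors lower the luminescence signal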
# HEK293 [9] = assay: cells; assay type: functional, cell-based; conditions: Homo sapiens; remark: listed apart in the source
# [10] = Luminescence Cell-Based Dose Response HTS to Identify Inhibitors of 5'UTR Stem-Loop Driven Prion Protein mRNA Translation in H4 Neuroglioblastoma Cells. [Related pubchem assays: 1827 (Project Summary), 1813 (Primary HTS)]; assay type: functional
# [11] = inhibitors of SNCA 5'UTR-driven reporter translation, confirmation, H4 neuroglioma cells, luminescence (AID 1988); assay type: functional, cell-based
# [12] = target: T2, Nucleotide-binding oligomerization domain-containing protein 2; assay: NOD2 signaling inhibitors, cell-based, luminescence, uHTS, HEK293 (AID 1566); assay type: functional
# HEK293 [13] = assay: cells; conditions: Homo sapiens
# HEK293 [14] = assay: cells; assay type: functional, cell-based; conditions: Homo sapiens; remark: listed apart in the source
# Vero = assay: cells; assay type: functional, cell-based; conditions: Chlorocebus sabaeus
# [15] = Luminescence Cell-Based Dose Retest to Confirm Inhibitors of Cancer Stem Cells. [Related pubchem assays (depositor defined):AID2717, AID2721]; assay type: functional; conditions: Homo sapiens
# [16] = cytotoxicity in HEK-293T cells, dose response, cytotoxicity control for BCR NF-kB inhibitor project, luminescence, B-cell screen hits (AID 489021); assay type: functional, cell-based;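 also: HEK-293T cells carrying an NF-kB luciferase reporter; cells exposed to compound for about 14 hours before viability readout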
# [17] = control 3'UTR Renilla luciferase suppression, dose response, counter-screen for Shn3 inhibitor project, cell-based, Clone20-Shn3RL, cherry-picked (AID 624133); assay type: functional
# [18] = Shn3 3'UTR reporter inhibitors, dose response, cell-based, Clone20 osteoblasts, firefly luciferase, cherry-picked (AID 624132); assay type: functional;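 also: firefly luciferase luminescence from reporter carrying the Shn3 3'UTR in osteoblasts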
# [19] = HepG2 cell cytotoxicity, dose response, cytotoxicity control for Shn3 inhibitor project, CellTiter-Glo, cherry-picked (AID 624134); assay type: functional, cell-based
# Bcl-2-like protein 10 = target: T3, Bcl-2-like protein 10 (Homo sapiens, UniProt Q9HD36); assay: displacers of TR3 peptide from Bcl-B, primary screen, selectivity assay for Bfl-1 inhibitor project, biochemical, fluorescence polarization, FITC-TR3 peptide (AID 748);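 also: fluorescence polarization from a fluorescein-labelled TR3 peptide binding purified Bcl-B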
# T3 sequence (Q9HD36 whole entry): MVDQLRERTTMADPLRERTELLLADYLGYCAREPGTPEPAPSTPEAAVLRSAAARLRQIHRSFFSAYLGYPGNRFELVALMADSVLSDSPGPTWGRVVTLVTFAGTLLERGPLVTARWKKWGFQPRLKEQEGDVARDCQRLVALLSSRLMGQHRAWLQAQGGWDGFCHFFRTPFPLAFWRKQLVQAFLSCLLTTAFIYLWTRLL
# [20] = target: Beta-2 adrenergic receptor (Homo sapiens, UniProt P07550); assay: beta2AR agonists driving receptor internalization, dose response, cell-based, FAP fluorogen, flow cytometry, cherry pick 1 (AID 588763); assay type: functional
# [21] = THP-1 cell cytotoxicity, dose response, cytotoxicity control for non-replicating M. tuberculosis project (AID 489025); assay type: functional
# cells = assay type: functional
# [22] = Vero E6 cell cytotoxicity, dose response, cytotoxicity control for non-replicating M. tuberculosis project, secondary assay (AID 492998); assay type: functional, VeroE6; conditions: Vero C1008
# [23] = HepG2 cell cytotoxicity, dose response, cytotoxicity control for non-replicating M. tuberculosis project (AID 489018); assay type: functional; conditions: Mycobacterium tuberculosis
# [24] = MC4R antagonists, dose response, counter-screen for LGR2 antagonist project, cell-based, plate reader, cherry pick (AID 743444); assay type: functional;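 also: transfected HEK 293 cells stimulated with alpha-MSH peptide; potency of inhibitors of the alpha-MSH evoked signal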
# [25] = HepG2 cell cytotoxicity, dose response, cytotoxicity control, plate reader, cherry-pick, antagonist series (AID 743416); assay type: functional, cell-based
# [26] = target: Neurotensin receptor type 1 (Homo sapiens, UniProt P30989); assay type: functional;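 also: Image-based confirmatory dose-response assay measuring agonist activity at NTR1; NTR1-expressing U2OS osteosarcoma cells imaged for beta-arrestin GFP spot formation; agonist potency where compounds increase beta-arrestin recruitment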
# [27] = LGR2 antagonists, dose response, cell-based, HEK293, CRE-luciferase reporter, cherry pick, set 2 (AID 743343); assay type: functional;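 also: transfected cells were stimulated with diluted bursicon conditioned medium after compound addition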
# Bcl-2-related protein A1 = target: T4, Bcl-2-related protein A1 (Mus musculus, UniProt Q07440); assay type: functional;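 also: confirmatory dose–response counterscreen on Bfl-1, used to check hits from a UBC13 polyubiquitin inhibitor campaign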
# T4 sequence (Q07440 whole entry): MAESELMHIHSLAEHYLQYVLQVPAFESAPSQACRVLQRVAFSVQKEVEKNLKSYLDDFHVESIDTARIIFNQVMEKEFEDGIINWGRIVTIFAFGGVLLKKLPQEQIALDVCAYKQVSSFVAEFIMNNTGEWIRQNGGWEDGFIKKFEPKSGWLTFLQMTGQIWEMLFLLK
# [28] = HEK293 cell cytotoxicity, dose response, cytotoxicity control, plate reader, cherry-picked samples (AID 743446); assay type: functional, cell-based
# [29] = target: T5, Ubiquitin-conjugating enzyme E2 N (Homo sapiens, UniProt P61088); assay type: functional
# T5 sequence (P61088 whole entry): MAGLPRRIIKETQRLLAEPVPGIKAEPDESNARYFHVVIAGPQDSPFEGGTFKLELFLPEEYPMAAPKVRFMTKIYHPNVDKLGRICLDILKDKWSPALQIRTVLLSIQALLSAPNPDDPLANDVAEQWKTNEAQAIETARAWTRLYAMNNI
# [30] = target: T5, Ubiquitin-conjugating enzyme E2 N; assay type: functional; remark: listed apart in the source
# [31] = A549 cell cytotoxicity, dose response, cytotoxicity control, plate reader, cherry-pick, antagonist series (AID 743412); assay type: functional, cell-based
# Hexokinase HKDC1 = target: T6, Hexokinase HKDC1 (Homo sapiens, UniProt Q2TB90); assay: HKDC1 hexokinase inhibitors, dose response, biochemical, W721R variant (AID 504729); assay type: functional
# T6 sequence (Q2TB90 whole entry): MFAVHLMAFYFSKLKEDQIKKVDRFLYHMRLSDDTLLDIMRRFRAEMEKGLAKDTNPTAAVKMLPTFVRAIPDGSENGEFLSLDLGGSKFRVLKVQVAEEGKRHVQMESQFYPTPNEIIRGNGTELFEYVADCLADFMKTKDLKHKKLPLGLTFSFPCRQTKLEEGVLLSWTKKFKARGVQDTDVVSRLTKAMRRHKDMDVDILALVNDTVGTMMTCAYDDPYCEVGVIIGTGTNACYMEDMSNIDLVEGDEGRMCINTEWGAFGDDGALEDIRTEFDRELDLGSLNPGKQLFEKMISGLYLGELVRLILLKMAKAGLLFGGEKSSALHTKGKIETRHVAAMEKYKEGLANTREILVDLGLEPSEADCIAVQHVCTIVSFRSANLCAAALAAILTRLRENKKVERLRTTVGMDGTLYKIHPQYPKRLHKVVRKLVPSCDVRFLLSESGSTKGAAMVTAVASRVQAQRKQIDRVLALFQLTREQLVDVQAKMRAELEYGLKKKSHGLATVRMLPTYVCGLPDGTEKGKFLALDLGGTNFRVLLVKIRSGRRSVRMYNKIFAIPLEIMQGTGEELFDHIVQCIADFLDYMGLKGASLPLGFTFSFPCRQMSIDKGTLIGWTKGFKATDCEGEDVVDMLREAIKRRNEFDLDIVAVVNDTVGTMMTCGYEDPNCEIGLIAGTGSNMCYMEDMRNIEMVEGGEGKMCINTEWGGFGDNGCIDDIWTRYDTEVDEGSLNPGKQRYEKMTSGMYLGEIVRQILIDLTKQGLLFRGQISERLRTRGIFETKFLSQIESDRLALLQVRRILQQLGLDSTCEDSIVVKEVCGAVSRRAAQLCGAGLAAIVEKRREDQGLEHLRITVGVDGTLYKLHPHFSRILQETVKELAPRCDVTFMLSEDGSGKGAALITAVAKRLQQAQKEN
# Beta-galactosidase = Beta-galactosidase (Escherichia coli, UniProt Q8VNN2); assay: beta-galactosidase enzyme inhibitors and activators, dose response, artefact control for CCR6 antagonist project, biochemical, E. coli enzyme, set 3 (AID 504712); assay type: functional
# Beta-galactosidase, sequence (Q8VNN2 whole entry): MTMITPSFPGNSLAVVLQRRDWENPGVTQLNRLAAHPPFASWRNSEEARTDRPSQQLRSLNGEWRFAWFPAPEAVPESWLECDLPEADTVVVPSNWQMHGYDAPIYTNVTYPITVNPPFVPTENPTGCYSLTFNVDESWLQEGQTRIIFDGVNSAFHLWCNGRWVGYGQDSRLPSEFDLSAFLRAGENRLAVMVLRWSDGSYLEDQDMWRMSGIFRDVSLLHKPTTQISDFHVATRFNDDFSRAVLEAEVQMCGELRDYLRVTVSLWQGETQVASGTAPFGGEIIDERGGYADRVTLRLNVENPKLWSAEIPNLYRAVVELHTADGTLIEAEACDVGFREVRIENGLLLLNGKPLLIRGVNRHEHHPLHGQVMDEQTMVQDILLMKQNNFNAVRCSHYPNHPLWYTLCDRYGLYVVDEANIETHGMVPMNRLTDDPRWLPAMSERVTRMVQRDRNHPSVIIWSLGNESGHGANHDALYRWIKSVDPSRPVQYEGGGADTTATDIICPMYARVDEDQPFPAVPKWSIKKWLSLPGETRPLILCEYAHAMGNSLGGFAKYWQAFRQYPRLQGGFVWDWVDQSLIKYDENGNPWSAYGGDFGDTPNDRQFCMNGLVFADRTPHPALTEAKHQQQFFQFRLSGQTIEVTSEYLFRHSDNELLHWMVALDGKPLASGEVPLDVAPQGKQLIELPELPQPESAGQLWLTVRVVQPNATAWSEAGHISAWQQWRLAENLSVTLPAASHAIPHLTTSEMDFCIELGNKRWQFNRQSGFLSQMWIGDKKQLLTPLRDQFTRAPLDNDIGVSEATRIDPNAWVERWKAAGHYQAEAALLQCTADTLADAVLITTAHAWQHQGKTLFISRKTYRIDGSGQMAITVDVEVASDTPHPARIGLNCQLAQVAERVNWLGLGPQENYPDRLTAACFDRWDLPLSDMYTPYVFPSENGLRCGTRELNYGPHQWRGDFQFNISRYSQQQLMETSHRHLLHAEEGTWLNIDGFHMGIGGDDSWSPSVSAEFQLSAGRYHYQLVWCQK
# T2 sequence (Q9HC29 whole entry, the tested form may be a part): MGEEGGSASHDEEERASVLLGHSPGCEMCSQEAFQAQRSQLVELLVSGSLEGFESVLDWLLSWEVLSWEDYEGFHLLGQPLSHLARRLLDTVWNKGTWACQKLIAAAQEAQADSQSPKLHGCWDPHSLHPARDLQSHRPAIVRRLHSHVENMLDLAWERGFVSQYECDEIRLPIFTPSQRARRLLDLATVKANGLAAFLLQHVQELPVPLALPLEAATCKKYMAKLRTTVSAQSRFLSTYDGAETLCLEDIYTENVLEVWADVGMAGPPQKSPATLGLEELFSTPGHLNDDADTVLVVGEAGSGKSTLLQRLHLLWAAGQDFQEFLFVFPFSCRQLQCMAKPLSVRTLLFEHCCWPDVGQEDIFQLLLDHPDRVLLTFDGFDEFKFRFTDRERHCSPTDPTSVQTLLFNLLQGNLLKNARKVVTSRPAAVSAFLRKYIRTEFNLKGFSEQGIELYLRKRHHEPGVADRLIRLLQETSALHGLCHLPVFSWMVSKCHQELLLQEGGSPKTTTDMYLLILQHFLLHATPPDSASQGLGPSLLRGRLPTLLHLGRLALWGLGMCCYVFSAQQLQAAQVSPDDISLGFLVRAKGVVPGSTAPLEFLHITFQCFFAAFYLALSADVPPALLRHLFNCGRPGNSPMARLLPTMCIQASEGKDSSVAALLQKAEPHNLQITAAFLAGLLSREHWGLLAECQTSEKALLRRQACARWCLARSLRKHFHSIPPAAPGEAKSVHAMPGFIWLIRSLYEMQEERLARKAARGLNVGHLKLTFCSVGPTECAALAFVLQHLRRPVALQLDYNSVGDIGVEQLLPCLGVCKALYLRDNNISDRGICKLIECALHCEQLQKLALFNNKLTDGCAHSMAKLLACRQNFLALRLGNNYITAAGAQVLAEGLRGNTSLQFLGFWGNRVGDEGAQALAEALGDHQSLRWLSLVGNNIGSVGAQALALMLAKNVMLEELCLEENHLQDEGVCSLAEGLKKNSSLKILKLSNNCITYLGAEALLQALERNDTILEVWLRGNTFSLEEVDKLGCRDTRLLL
# Beta-2 adrenergic receptor, sequence (P07550 whole entry): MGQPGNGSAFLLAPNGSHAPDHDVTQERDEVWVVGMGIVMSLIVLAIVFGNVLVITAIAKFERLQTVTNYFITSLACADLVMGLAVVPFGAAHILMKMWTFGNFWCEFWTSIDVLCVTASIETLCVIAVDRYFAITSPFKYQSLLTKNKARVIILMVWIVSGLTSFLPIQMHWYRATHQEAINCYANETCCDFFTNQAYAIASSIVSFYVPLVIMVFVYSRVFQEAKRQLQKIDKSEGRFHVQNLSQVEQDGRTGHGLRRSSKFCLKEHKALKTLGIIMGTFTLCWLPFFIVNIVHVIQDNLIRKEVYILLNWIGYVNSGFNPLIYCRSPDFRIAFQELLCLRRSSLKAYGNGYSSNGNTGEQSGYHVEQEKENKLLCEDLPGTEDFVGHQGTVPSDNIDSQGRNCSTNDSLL
# Tumor necrosis factor, sequence (P01375 whole entry): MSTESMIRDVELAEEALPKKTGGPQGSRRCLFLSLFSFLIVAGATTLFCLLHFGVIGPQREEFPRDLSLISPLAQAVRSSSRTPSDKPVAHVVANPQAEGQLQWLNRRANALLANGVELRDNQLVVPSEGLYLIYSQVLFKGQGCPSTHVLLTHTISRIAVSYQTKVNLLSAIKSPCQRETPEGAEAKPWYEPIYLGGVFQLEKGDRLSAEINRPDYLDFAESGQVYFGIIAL
# Neurotensin receptor type 1, sequence (P30989 whole entry): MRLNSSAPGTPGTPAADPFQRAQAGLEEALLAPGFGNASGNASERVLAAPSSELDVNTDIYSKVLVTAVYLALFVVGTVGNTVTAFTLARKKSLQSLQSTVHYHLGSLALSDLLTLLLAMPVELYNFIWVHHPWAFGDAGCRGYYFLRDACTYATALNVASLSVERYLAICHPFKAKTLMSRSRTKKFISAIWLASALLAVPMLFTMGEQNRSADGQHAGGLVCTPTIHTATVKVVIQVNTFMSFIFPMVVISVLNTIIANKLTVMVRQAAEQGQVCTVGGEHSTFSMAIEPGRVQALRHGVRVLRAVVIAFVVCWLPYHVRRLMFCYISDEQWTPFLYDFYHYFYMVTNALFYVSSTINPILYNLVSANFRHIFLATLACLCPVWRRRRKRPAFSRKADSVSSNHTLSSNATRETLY
structure (smiles),measurement,setting,value
CCCCCn1c(=O)c(C(=O)Nc2ccccc2S(N)(=O)=O)c(O)c2ccccc21,IC50,HEK293 [1],> 20 µM (inactive)
same,EC50,[2],> 120 µM (not active)
same,IC50,HEK293 [3],8.2 µM (active)
same,IC50,[4],5.88 µM (active)
same,EC50,[5],> 30 µM (not active)
same,IC50,Tumor necrosis factor,3.44 µM (active)
same,EC50,HEK293 [6],6.17 µM (active)
same,IC50,[7],6.92 µM (active)
same,EC50,[8],2.07 µM (active)
same,IC50,HEK293 [9],> 20 µM (inactive)
same,EC50,[10],> 120 µM (not active)
same,EC50,[11],9.08 µM (active)
same,EC50,[12],5.7 µM (active)
same,IC50,HEK293 [13],> 20 µM (inactive)
same,IC50,HEK293 [14],> 20 µM (inactive)
Cc1ccc2c(c1)CCCN2S(=O)(=O)c1cccc(C(=O)Nc2ccccc2C(=O)O)c1,IC50,Vero,> 25 µM (active)
same,IC50,HEK293 [1],> 20 µM (inactive)
same,IC50,HEK293 [3],15.9 µM (inactive)
same,IC50,[4],9.05 µM (active)
same,EC50,[5],4.22 µM (active)
same,IC50,Tumor necrosis factor,7.52 µM (active)
same,EC50,HEK293 [6],9.32 µM (active)
same,IC50,[7],12.6 µM (active)
same,EC50,[8],4.95 µM (active)
same,IC50,HEK293 [9],> 20 µM (inactive)
same,EC50,[12],4.45 µM (active)
same,IC50,HEK293 [13],> 20 µM (inactive)
same,IC50,HEK293 [14],> 20 µM (inactive)
Cn1nnnc1Sc1ncnc2scc(Br)c12,AC50,[15],2.12 µM (active)
same,IC50,[16],> 80 µM (inactive)
same,AC50,[17],12.5 µM (active)
same,AC50,[18],6.51 µM (active)
same,AC50,[19],39 µM (active)
COc1ccc(-c2ccc(OC)c([C@H]3[C@H]4C=CC[C@@H](C)[C@@H]4C(=O)N3Cc3ccccc3)c2)cc1,IC50,[16],> 80 µM (inactive)
O=C(CCCCCn1c(=S)[nH]c2ccccc2c1=O)NCc1ccc2c(c1)OCO2,IC50,Bcl-2-like protein 10,> 100 µM (inactive)
same,EC50,[20],0.0077 µM (active)
COc1cc(CNCCc2c[nH]c3ccccc23)ccc1OCc1ccc(F)cc1,CC50,[21],12 µM (active)
same,IC50,cells,10.7 µM (active)
same,AC50,[15],5 µM (active)
same,IC50,Bcl-2-like protein 10,> 100 µM (inactive)
same,EC50,[20],36.7 µM (inactive)
same,CC50,[22],11.3 µM (active)
same,CC50,[23],8 µM (active)
CCOC(=O)/C(=C\c1cccc(O)c1)c1nc(O)c2c(C)c(C)sc2n1,AC50,[24],24.5 µM (active)
same,AC50,[25],13.5 µM (active)
same,EC50,[26],6.59 µM (active)
same,AC50,[27],12.9 µM (active)
same,IC50,Bcl-2-related protein A1,> 20 µM (inactive)
same,AC50,[28],22.8 µM (active)
same,IC50,[29],> 20 µM (inactive)
same,IC50,[30],16.4 µM (active)
same,AC50,[31],20.3 µM (active)
COC(=O)c1ccc(CCc2cc(O)c(Br)cc2O)cc1,IC50,Hexokinase HKDC1,6.54 µM (active)
same,IC50,Beta-galactosidase,> 66.6 µM (inactive)
